Counter-ions that a name gives are not always drawn. Calls of active or inactive are those of the source.
Tests used:
[1] = biological target: T1, Delta-type opioid receptor (Homo sapiens, UniProt P41143); test: HTS Image-Based Screen for Agonists of the DOR Receptor. [Related pubchem assays (depositor defined):AID1777, AID1786, AID2133]; format: functional
[2] = biological target: Eukaryotic translation initiation factor 4E (Mus musculus, UniProt P63073); test: blockers of eIF4G binding by eIF4E – biochemical, TR-FRET, dose response (AID 855); format: functional;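 note: potency for disrupting eIF4E binding to eIF4GI seen as loss of FRET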
[3] = biological target: T2, Kappa-type opioid receptor (Homo sapiens, UniProt P41145); format: functional
Mu-type opioid receptor = Mu-type opioid receptor (Homo sapiens, UniProt P35372); test: HTS Image-Based Screen for Agonists of the MOR Receptor. [Related pubchem assays (depositor defined):AID1777, AID1785, AID1786, AID2133]; format: functional;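 note: imaging of beta-arrestin GFP recruitment into spots after receptor activation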
[4] = biological target: T2, Kappa-type opioid receptor; format: functional; remark: listed apart in the source
[5] = biological target: T1, Delta-type opioid receptor; test: HTS Image-Based Screen for Antagonists of the DOR Receptor. [Related pubchem assays (depositor defined):AID1777, AID1785, AID1786, AID2133]; format: functional
[6] = biological target: T3, DNA repair protein RAD52 homolog (Homo sapiens, UniProt P43351); format: functional, biochemical
T3 sequence (P43351 whole entry): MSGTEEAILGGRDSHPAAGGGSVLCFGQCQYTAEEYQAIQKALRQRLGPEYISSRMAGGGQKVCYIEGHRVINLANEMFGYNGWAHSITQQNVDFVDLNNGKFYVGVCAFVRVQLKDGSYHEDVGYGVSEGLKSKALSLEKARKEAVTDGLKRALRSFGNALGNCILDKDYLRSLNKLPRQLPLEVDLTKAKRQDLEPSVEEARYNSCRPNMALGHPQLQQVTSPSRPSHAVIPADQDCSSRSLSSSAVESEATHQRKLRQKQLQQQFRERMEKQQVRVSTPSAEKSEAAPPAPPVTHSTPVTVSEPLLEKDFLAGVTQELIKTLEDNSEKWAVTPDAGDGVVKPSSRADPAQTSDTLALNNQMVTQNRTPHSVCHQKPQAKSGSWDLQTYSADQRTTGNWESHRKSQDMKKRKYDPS

[7] = biological target: T4, Microphthalmia-associated transcription factor (Homo sapiens, UniProt O75030); test: reducers of TRPM1 reporter luminescence, concentration series – cell-based, SK-MEL-5, cherry-picked, set 3, MITF inhibitor project, dose response (AID 493073); format: functional;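 note: SK-MEL-5 melanoma cells with luciferase driven by the MITF target TRPM1 promoter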
T4 sequence (O75030 whole entry): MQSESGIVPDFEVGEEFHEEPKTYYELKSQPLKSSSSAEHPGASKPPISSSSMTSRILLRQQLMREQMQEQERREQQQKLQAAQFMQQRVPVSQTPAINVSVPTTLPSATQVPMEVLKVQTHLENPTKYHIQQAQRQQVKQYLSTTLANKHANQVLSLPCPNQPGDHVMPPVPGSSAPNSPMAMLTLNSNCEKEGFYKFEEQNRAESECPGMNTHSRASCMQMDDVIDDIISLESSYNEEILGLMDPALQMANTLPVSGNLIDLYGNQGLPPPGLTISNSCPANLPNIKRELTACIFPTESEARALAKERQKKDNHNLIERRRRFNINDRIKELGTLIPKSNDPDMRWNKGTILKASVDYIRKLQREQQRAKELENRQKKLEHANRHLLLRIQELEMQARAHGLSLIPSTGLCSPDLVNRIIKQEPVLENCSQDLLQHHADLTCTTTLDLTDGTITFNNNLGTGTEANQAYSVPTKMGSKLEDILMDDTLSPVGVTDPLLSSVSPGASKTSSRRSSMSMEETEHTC

[8] = biological target: G-protein coupled receptor 35 (Homo sapiens, UniProt Q9HC97); test: inhibition of zaprinast-stimulated GPR35 beta-arrestin translocation – imaging, U2OS, beta-arrestin-GFP, zaprinast agonist, primary screen (AID 2058); format: functional;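 note: antagonist potency meaning inhibition of agonist-induced arrestin redistribution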
[9] = biological target: T5, Small ubiquitin-related modifier 1 (Homo sapiens, UniProt P63165); test: SUMO1 protein-protein binding blockers, potency – biochemical, FRET, dose response (AID 624383); format: functional; conditions: read-out: IC50_Mean
[10] = Luminescence Cell Based Dose Confirmation HTS to Identify Activators of 5'UTR Stem-Loop Driven Alpha-Synuclein mRNA Translation in H4 Neuroglioblastoma Cells. [Related pubchem assays (depositor defined):AID1813, AID1829]; format: functional; conditions: Homo sapiens
[11] = biological target: T5, Small ubiquitin-related modifier 1; test: SUMO1 protein interaction blockers, potency – biochemical, fluorescence polarization, uHTS hits, dose response (AID 624382); format: functional; conditions: read-out: IC50_Mean
[12] = CellTiter-Glo luminescence survival assay, SW480 colon tumor line, concentration-response curve, half-maximal inhibitory concentration (AID 1117338); format: functional
[13] = Reduced DLD-1 viability, concentration-response, CellTiter-Glo luminescence (AID 1117352); format: functional
[14] = HCT116 cell viability decrease, GSK3B pretreatment – CellTiter-Glo, IC50, dose response (AID 1117339); format: functional; conditions: HCT-116
[15] = Trypanosoma cruzi growth suppression in host cells – NIH3T3 host cells, beta-gal luminescence, confirmation (AID 2044); format: functional, cell-based;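 note: intracellular parasites grown in NIH/3T3 mouse fibroblasts as host cells; luminescent beta-galactosidase reporter signal from transgenic T. cruzi replicating inside host cells; inhibitors lower the luminescence signal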
[16] = viability loss of HPDE-C7K cells – cell-based, fluorescence, HTS, primary screen (AID 431); format: functional; conditions: Homo sapiens
Saccharomyces cerevisiae = test: S. cerevisiae Caspase-1/ASC signal blockers IC50, NALP1 inhibitor project selectivity test (AID 488863); format: functional, organism-based
[17] = biological target: G-protein coupled receptor 55 (Homo sapiens, UniProt Q9Y2T6); test: inhibition of LPI-stimulated GPR55 beta-arrestin translocation – imaging, U2OS, beta-arrestin-GFP, LPI agonist, primary screen (AID 2013); format: functional;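 note: antagonist potency measured as reduced agonist-driven arrestin aggregation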
[18] = NIH3T3 cell viability loss – ATP luminescence, mouse fibroblasts, counter-screen, dose response (AID 2010); format: functional, cell-based;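 note: cells exposed to compound for about 90 hours before reading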
[19] = cytotoxicity toward HCT116 cells – cell-based, CellTiter-Glo luminescence, IC50, dose response (AID 1117332); format: functional; conditions: HCT-116
[20] = biological target: T6, Ubiquitin-conjugating enzyme E2 N (Homo sapiens, UniProt P61088); format: functional;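 note: Dose-response confirmation in a TR-FRET assay detecting UBC13-driven polyubiquitin chain formation, inhibition measured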
T6 sequence (P61088 whole entry): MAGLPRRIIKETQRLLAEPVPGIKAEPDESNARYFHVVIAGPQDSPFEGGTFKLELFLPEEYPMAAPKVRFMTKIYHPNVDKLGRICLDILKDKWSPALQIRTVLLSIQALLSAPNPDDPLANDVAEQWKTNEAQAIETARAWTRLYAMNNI

[21] = luciferase reporter signal suppression in cells – H4 neuroglioma cells, luminescence, dose response (AID 1990); format: functional, cell-based
[22] = cytotoxicity toward Colo320 cells – cell-based, CellTiter-Glo luminescence, IC50, dose response (AID 1117334); format: functional; conditions: COLO 320
[23] = alpha-synuclein stem-loop luciferase translation blockers – H4 neuroglioma cells, luminescence, confirmation (AID 1988); format: functional, cell-based
[24] = RKO cell viability reduction, dose response, CellTiter-Glo luminescence (AID 1117322); format: functional
INS1 = test: INS-1E survival protection against cytokine death – cell-based, luminescence, retest, dose response (AID 449756); format: functional; conditions: Rattus norvegicus;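 note: cell death triggered by IL-1 beta plus TNF-alpha plus IFN-gamma mixture; protective hits raise ATP signal compared with cytokine alone wells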
[25] = cytotoxicity toward HT-29 cells – cell-based, CellTiter-Glo luminescence, IC50, dose response (AID 1117330); format: functional
[26] = SNU-C1 cell viability reduction, dose response, CellTiter-Glo luminescence (AID 1117323); format: functional, cell-based
[27] = Luminescence Cell-Based Dose Response HTS to Identify Inhibitors of 5'UTR Stem-Loop Driven Prion Protein mRNA Translation in H4 Neuroglioblastoma Cells. [Related pubchem assays: 1827 (Project Summary), 1813 (Primary HTS)]; format: functional
[28] = HPDE-C7 pancreatic duct cell viability loss – fluorescence, HTS (AID 430); format: functional, cell-based; conditions: Homo sapiens
[29] = biological target: NACHT, LRR and PYD domains-containing protein 1 (Homo sapiens, UniProt Q9C000); test: NALP1 inhibitors in yeast, dose response, luminescent (AID 488860); format: functional
Chain of NACHT, LRR and PYD domains-containing protein 1 (Q9C000 1-1212 limits assumed): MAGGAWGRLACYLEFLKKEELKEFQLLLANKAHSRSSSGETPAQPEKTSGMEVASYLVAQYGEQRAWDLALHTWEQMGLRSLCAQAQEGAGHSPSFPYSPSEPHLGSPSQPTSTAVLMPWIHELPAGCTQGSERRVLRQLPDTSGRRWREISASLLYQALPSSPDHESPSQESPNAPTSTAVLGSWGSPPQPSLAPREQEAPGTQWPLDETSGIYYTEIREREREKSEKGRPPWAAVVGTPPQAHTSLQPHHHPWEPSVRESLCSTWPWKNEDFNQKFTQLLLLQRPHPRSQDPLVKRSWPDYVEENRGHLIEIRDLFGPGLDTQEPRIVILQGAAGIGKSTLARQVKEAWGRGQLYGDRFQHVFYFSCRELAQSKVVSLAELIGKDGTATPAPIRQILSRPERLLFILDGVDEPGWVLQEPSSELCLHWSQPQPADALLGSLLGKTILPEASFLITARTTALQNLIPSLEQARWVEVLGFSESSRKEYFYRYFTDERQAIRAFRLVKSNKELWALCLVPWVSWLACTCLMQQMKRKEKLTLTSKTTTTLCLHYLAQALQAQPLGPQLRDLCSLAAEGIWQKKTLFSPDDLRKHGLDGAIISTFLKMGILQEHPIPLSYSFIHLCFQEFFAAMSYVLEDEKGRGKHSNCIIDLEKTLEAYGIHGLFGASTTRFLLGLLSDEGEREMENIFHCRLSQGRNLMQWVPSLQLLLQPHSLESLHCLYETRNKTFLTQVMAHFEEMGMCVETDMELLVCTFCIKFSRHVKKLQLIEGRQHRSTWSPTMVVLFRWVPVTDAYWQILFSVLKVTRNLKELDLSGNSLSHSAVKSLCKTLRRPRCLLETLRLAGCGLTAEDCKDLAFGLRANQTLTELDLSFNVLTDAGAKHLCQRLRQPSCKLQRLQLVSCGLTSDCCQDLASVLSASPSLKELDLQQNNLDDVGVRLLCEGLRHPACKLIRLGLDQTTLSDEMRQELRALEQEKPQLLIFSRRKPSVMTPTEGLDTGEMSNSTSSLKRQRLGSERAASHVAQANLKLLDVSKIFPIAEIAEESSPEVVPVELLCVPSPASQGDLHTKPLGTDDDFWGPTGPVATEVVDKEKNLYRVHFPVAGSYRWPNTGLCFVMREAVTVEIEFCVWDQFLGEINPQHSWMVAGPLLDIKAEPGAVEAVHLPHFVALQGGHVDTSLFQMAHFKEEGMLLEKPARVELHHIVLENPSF
Chain of NACHT, LRR and PYD domains-containing protein 1 (Q9C000 1213-1473 limits assumed): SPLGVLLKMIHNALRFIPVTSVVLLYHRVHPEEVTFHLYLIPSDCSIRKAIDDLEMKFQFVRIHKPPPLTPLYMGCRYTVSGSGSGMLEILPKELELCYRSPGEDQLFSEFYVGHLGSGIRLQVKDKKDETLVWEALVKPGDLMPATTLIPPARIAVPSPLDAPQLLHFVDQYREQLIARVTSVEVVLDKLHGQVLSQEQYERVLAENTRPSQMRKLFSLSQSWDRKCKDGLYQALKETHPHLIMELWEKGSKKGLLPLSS

T5 sequence (P63165 whole entry): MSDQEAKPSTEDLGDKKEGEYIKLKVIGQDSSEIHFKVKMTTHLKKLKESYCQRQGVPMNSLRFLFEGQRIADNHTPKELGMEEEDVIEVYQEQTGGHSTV
T1 sequence (P41143 whole entry): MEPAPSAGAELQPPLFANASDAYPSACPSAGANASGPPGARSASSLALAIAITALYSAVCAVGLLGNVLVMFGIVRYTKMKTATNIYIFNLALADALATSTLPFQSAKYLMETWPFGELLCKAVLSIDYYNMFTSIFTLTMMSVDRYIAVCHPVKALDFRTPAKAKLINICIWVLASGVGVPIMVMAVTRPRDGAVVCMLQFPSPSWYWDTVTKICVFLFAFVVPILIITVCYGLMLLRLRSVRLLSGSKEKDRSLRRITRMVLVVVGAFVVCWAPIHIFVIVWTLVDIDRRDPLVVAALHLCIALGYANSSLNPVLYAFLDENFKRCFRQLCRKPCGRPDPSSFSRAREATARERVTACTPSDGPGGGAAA
T2 sequence (P41145 whole entry): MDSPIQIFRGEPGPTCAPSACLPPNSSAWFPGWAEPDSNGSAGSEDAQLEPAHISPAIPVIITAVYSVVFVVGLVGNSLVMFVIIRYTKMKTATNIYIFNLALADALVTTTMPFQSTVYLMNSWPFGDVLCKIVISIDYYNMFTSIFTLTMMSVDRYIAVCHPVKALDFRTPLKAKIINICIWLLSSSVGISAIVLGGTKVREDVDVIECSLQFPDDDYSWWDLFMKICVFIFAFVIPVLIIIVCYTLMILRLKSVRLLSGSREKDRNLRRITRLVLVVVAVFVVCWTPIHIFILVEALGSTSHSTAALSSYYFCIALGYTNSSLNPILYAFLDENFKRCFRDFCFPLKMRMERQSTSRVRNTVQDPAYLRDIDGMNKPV
Chain of G-protein coupled receptor 35 (Q9HC97 whole entry): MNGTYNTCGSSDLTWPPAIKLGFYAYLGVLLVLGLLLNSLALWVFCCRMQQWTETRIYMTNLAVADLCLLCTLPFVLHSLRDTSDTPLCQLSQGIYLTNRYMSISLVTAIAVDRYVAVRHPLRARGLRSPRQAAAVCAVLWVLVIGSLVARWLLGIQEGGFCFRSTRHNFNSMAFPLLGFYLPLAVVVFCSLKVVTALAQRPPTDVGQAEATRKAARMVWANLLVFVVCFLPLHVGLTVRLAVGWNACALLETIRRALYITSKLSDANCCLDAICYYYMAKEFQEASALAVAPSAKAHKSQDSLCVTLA
Chain of Eukaryotic translation initiation factor 4E (P63073 whole entry): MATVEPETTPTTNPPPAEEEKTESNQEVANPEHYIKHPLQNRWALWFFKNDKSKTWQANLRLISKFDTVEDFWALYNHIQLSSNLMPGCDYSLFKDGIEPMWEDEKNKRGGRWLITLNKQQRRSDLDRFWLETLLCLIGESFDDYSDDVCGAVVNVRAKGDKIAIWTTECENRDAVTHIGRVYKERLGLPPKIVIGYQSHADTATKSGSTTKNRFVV
Chain of G-protein coupled receptor 55 (Q9Y2T6 whole entry): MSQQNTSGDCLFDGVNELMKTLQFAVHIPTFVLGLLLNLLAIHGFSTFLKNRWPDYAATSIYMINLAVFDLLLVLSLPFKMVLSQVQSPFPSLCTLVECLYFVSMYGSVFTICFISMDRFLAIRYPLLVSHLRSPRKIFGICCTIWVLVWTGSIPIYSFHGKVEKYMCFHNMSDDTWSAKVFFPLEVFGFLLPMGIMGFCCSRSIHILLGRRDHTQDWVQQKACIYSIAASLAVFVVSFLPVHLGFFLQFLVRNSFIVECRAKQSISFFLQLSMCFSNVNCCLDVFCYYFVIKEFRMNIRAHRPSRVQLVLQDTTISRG
Chain of Mu-type opioid receptor (P35372 whole entry): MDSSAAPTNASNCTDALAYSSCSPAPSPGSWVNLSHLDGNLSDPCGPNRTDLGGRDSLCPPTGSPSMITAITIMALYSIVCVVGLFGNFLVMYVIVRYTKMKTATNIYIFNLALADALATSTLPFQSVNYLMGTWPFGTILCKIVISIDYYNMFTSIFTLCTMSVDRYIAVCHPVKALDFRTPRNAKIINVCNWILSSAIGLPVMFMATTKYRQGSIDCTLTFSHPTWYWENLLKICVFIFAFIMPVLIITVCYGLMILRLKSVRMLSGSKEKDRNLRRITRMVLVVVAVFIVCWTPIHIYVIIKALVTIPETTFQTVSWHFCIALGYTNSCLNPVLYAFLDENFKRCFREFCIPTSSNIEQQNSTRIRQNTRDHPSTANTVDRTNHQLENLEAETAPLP

Cc1ccc(C)c(N2CCN(C(=O)C(Cc3ccccc3)n3cccc3)CC2)c1 (stereo not drawn)
EC50 [1]: > 32 µM (inactive) | IC50 [2]: > 64 µM (inactive) | EC50 [3]: 10.5 µM | EC50 (Mu-type opioid receptor): > 32 µM (inactive) | EC50 [4]: 4.27 µM | IC50 [5]: > 32 µM (inactive)

CN(C)CCCNC(=O)/C(=C\c1ccc(-c2ccc(Br)cc2)o1)NC(=O)c1ccccc1
AC50 [6]: 15.6 µM (active) | AC50 [7]: 7.51 µM (active) | IC50 [8]: > 32 µM (inactive)

COc1ccc(Cl)cc1Nc1nnc(-c2ccncc2)s1
IC50 [9]: 4.83 µM (active) | EC50 [10]: 73.5 µM (active) | IC50 [11]: > 66.6 µM (inactive)

C1CCC(C(CC2CCCCN2)C2CCCCC2)CC1 (stereo not drawn) [PERHEXILINE MALEATE]
IC50 [12]: 5.76 µM (inactive) | IC50 [13]: > 20 µM (inactive) | IC50 [14]: 7.42 µM (inactive) | EC50 [15]: 3.13 µM (active) | EC50 [16]: 10.8 µM (active) | IC50 (Saccharomyces cerevisiae): 15.9 µM (active) | IC50 [17]: 3.19 µM (active) | EC50 [18]: 14.2 µM (active) | AC50 [7]: 18.8 µM (active) | IC50 [19]: > 20 µM (inactive) | IC50 [20]: > 20 µM (inactive) | EC50 [21]: > 120 µM (not active) | IC50 [22]: 8.86 µM (inactive) | EC50 [23]: 8.95 µM (active) | IC50 [24]: 7.85 µM (inactive) | AC50 (INS1): 6.42 µM (active) | IC50 [25]: 6.87 µM (inactive) | IC50 [26]: 2.48 µM (active) | EC50 [27]: > 120 µM (not active) | EC50 [28]: 11.7 µM (active) | IC50 [29]: 12.9 µM (active)

Reference: ChEMBL document CHEMBL1201862, “PubChem BioAssay data set” (2004)
